According to patent US20210395721A1, “METHODS TO IMPROVE POTENCY OF ELECTROPORATION” (Codiak BioSciences, Inc., priority 2018, published 2021):

What was measured:
[1] = Anion exchange chromatography (AEX) of siRNA before and after electroporation; assay type: physicochemical; conditions: for effect of excipient on AEX profile of XD-08318 after electroporation: 5 ms per pulse
Experimental: Anion exchange chromatography (AEX) was carried out on an Agilent 1100 HPLC using a […] PA200 column (Thermo Scientific). The column was equilibrated in 50 mM Tris pH 7.4, and 20 ng of each siRNA sample was prepared in a 100 μl HPLC vial for injection. The sample was injected and subjected to a gradient of 50 mM Tris pH 7.4 (mobile phase A) and 50 mM Tris, 1 M NaCl, pH 7.4 (mobile phase B) according to Tables 1 and 2, below. Electroporation is a common method for introducing nucleic acids into cells and other lipid structures such as exosomes. As an analytical method, siRNAs were analyzed by anion exchange chromatography (AEX), as described above, before and after electroporation. […] XD-08318 is a modified siRNA that contains a 5' terminal deoxyribose residue on the antisense strand, a combination of natural ribose and synthetic 2'-O-methyl ribose residues, and phosphorothioate linkages at the 3' ends of each strand (FIG. 2). Synthetic RNA XD-08318 was electroporated in the presence of several free radical scavengers and reducing agents as excipients.

KRAS G12D transcript = KRAS G12D transcript knockdown in Panc-1 cells; assay type: cell-based, human; conditions: FIG. 14, samples #9, #10 vs #4-8
Experimental: XD-08318 was loaded into exosomes by electroporation in the presence or absence of free radical scavengers. As a control, XD-08318 was transfected into the human pancreatic cancer cell line Panc-1, which is heterozygous for the G12D mutant transcript of KRAS. […] As controls, in the absence of any transfection reagent, Panc-1 cells were incubated with a mixture of the siRNA and exosomes without electroporation (mix), siRNA only, exosomes alone (EV only), or in the presence of siRNA and exosomes that were electroporated individually (si EP+EV EP Mix). […] Next, XD-08318 was loaded into exosomes by electroporation at pulse code 42 (sample 4) and incubated with cells, resulting in a modest ˜30% repression of the target transcript.

[2] = MaxCyte strong pulse code 66 (high field strength, high frequency)

effect of excipient on AEX spectral shift of XD-08318 after electroporation [1, 2]	effect of excipient on AEX spectral shift of XD-08318 after electroporation ([1]; MaxCyte intermediate pulse code 63 (high field strength, low frequency))	effect of excipient on AEX profile of XD-08318 after electroporation ([1]; Gene Pulser XCell (Bio-Rad), 800 V, 2 pulses)	effect of excipient on AEX profile of XD-08318 after electroporation ([1]; Neon Transfection System, 2000 V, 8 pulses)	Compound	knock-down by modified siRNA electroporated into exosomes in presence of the scavenger, compared to absence of free radical scavengers (KRAS G12D transcript)
prevented the spectral shift				CSCC[C@H](N)C(=O)O [L-Methionine]	increased knock-down
prevented the spectral shift	prevented the spectral shift			N[C@@H](CS)C(=O)O [L-cysteine]	
prevented the spectral shift		prevent a change in the AEX profile	prevent a change in the AEX profile	N[C@@H](CCC(=O)N[C@@H](CS)C(=O)NCC(=O)O)C(=O)O [Glutathione]	
